Reference: patent US20070134688A1, “CALCULATED INDEX OF GENOMIC EXPRESSION OF ESTROGEN RECEPTOR (ER) AND ER-RELATED GENES” (THE BOARD OF REGENTS OF THE UNIVERSITY OF TEXAS SYSTEM, priority 2005, published 2007)

Tests used:
[1] = test system: ER-positive cancer; details: compared to placebo, cited from earlier work
[2] = test system: ER-positive breast cancer; experiment: Distant relapse-free survival after adjuvant tamoxifen; format: in vivo, human; details: ER-positive patients on adjuvant tamoxifen
Description: Patients and Samples. […] At MDACC, pre-treatment fine needle aspiration (FNA) samples of primary breast cancer were obtained using a 23-gauge needle and the cells from 1-2 passes were collected into a vial containing 1 ml of RNAlater™ solution (Ambion, Austin Tex.) and stored at −80° C. until use, whereas archival frozen samples were evaluated from resected, metastatic, ER-positive breast cancer. All patients signed an informed consent for voluntary participation to collect samples for research. At other institutions, fresh tissue samples of surgically resected primary breast cancer were frozen in OCT compound and stored at −80° C.
Statistical Analysis of Distant relapse-free survival (DRFS). Distant relapse-free survival (DRFS) was defined as the interval from breast surgery until diagnosis of distant metastasis. Covariate effects on distant relapse risk after tamoxifen treatment were evaluated using log-rank test in multivariate Cox proportional hazards models stratified by institution. […] Confidence intervals of the survival estimate were calculated based on the Tsiatis variance estimates of the cumulative log-hazards (Therneau and Grambsch, 2000). […]

Row | SMILES | relative reduction in deaths ([1]; after 2.4 years, after 5 years of adjuvant tamoxifen) [%] | absolute difference in recurrence or new primaries ([1]; at 2.4 years) [%] | mean relapse-free survival at 10 years ([2]; SET index<2) [%] | mean relapse-free survival at 10 years ([2]; SET index>5) [%]
1 | N#Cc1ccc(C(c2ccc(C#N)cc2)n2cncn2)cc1 [letrozole] | 24 | 2.2 | – | –
2 | CC/C(=C(\c1ccccc1)c1ccc(OCCN(C)C)cc1)c1ccccc1 [tamoxifen] | – | – | 57.1 | 90.0
